Measurements from patent publication US7811778B2, “Methods of screening for gastrointestinal cancer” (Vanderbilt University, priority 2006, dated 2010).
“And” between values parts separate entries of the source, which are not always exact repeats. Equal entries are not always repeated. “Also recorded” adds a separate entry of the source.

What was measured:
emerging SPEM cells = assay: Quantitative PCR of transcripts in microdissected cells during emergence of SPEM; format: in vivo, gastrin-deficient mice
Procedure: Total RNA isolated from laser-capture microdissected cell collections from the stomachs of normal and DMP-777 1-day-treated and DMP-777 3-day—treated gastrin-deficient mice was analyzed by quantitative PCR assays. Reverse transcription from each total RNA sample was performed using random primers and Quantiscript Reverse transcriptase (Qiagen. Valencia, Calif.), for 30 minutes at 42° C. Quantitative real-time PCR was performed with a 3-step method using the Bio-Rad iCycler iQ real-time PCR detection system (Bio-Rad Laboratories, Hercules, Calif.). Each reaction was carried out in a 50 μL mixture consisting of QuantiTect SYBR Green PCO Master Mix (Qiagen), and 1 μL of template cDNA. The PCR conditions for quantitative real-time PCR were; 95° C. for 10 minutes 45 cycles of 94° C. for 15 seconds, 60° C. for 30 seconds, and 72° C. for 30 seconds. Quantitation of cDNA template in each sample was determined using the comparative threshold cycle (CT) method using GAPDH as a control, as described previously (Nomura S, Baxter S, Yamaguchi T, Leys C, Vartapetian A B, Fox J G, Lee J R, Wang T C, Goldenring J R. Relationship of spasmolytic polypeptide expressing metaplasia (SPEM) to pre-neoplasia in H. felis-infected mice. Gastroenterology 2004; 127:582-594). Statistical comparisons of the mean ΔΔCT between groups were determined using the Mann-Whitney U Test
However, by quantitative PCR assays, TFF2 levels were elevated greater than 7-fold in emerging SPEM from DMP-777 treated animals (FIG. 5).

fundic mucosa = assay: Immunohistochemistry / immunofluorescence of stomachs of DMP-777-treated mice; format: in vivo, gastrin-deficient mice
Description: Excised stomachs from Gastrin-deficient mice treated with DMP-777 or untreated controls embedded in paraffin were used for immunohistochemistry analysis Stomachs from C57BL/6 wild-type mice and sections from H. felis-infected C57BL/6 mice (infected for 6 months) were also examined with staining as a comparison. For immunohistochemistry, except for Mist1 staining, deparaffinized sections were pretreated with antigen retrieval using Target Retrieval solution (DakoCytomation, Glostrup, Denmark) at 120° C. for 15 minutes, followed by immediate cooling using iced water. For immunohistochemistry of Mist1, Trilogy antigen retrieval solution (Cell Marque, Austin. Tex.) was used during the antigen retrieval procedure. Sections were treated with 2% blocking serum and then incubated with the primary antibody overnight at 4° C. Immunostaining was performed with the following primary antibodies; murine monoclonal immunoglobulin M (IgM) anti-trefoil factor family 2 (TFF2, a gift from Sir Nicholas Wright, Cancer Research UK; 1:1000); rabbit anti-Mist1 (1:2000); murine monoclonal anti-H/K-ATPase (a gift from Dr. Adam J. Smolka, Medical University of South Carolina; 1:100,000); rabbit anti-HE4 (1:2000); rabbit anti-intrinsic factor (a gift from Dr. David Alpers, Washington University, St. Louis; 1:2000);, goat anti-Intrinsic factor (1:2000): rabbit anti-MCM3 (1:2000); rat monoclonal anti-Ki67 (TEC-3, DakoCytomation; 1:200).
For immunofluorescence analysis, Cy3-goat anti-mouse IgM antibody, Cy5-goat anti-mouse IgG antibody (Jackson ImmunoResearch, West Grove, Pa.) and Alexa488 goat anti-rabbit IgG (Invitrogen, Carlsbad, Calif.) were used. PROLONG® Gold Antifade Reagent with DAPI (Invitrogen) was used for nuclear counterstain and mounting medium.
For immunohistochemistry with detection with diaminobenzidine, the sections were incubated with biotinylated secondary antibody followed by horseradish peroxidase-conjugated streptavidin. Chromogen was developed with diaminobenzidine (Biogenex, San Ramon, Calif.). For immunohistochemistry with alkaline-phosphatase detection, the sections were incubated with biotinylated secondary antibody followed by alkaline-phosphatase-conjugated avidin-biotin complex. Chromogen was developed with VECTOR® Red Substrate (Vector Laboratories, Burlingame, Calif.). All sections were counterstained with Gill's hematoxylin.
Sections were viewed and photographed on Zeiss AXIOPHOT® microscope equipped with an AXIOVISION® digital imaging system (Zeiss) or FLUOVIEW® FV1000 confocal microscope system (Olympus).

[1] = test system: chief cells / SPEM cells at the bases of fundic glands; assay: Electron microscopy of gastric fundic region; format: in vivo; conditions: gastrin-deficient mice treated for 3 days with DMP-777
Procedure: Fresh specimens from the gastric fundic region of untreated controls and 3-day DMP-777 treated gastrin-deficient mice fixed for 2.5 hour on ice in 2.5% glutaraldehyde, 0.1 M Cacodytate Buffer in PBS. The samples were fixed overnight at 4° C. in 1% osmium tetroxide (OSO4) and 0.1M Cacodylate Buffer. Subsequently, the samples were subjected to an ethanol dehydration series and embedded in Spurrs resin. 50˜100 nm thin sections were cut and collected on 200-mesh, formvar-coated copper grids. After drying overnight, the grids were contrast stained with 2% depleted Uranyl Acetate (UA) and then stained with saturated lead citrate. Samples were examined on a Philips CM12 Electron Microscope.

parietal cells = conditions: cited from earlier work
[2] = microdissected cells, DMP-777 1 or 3 days vs untreated chief cells

CCC[C@@H](NC(=O)N1C(=O)C(CC)(CC)[C@@H]1Oc1ccc(C(=O)N2CCN(C)CC2)cc1)c1ccc2c(c1)OCO2 [DMP-777]
TFF2 levels by quantitative PCR (emerging SPEM cells; emerging SPEM from DMP-777 treated animals vs untreated chief cells): greater than 7 fold | G1/S associated transcripts MCM3, MCM5, MCM7 and ATF3 by quantitative PCR (emerging SPEM cells; [2]): up-regulation of G1/associated transcripts was confirmed | ST3Gal6 transcript by quantitative PCR (emerging SPEM cells; [2]): down-regulation ST3Gal6 was confirmed | transcripts for putative soluble mediators HE4 and IL1RN by quantitative PCR (emerging SPEM cells; [2]): up-regulation of transcripts for putative soluble mediators was also confirmed | quantification of Ki-67 staining (FIG. 6F) (fundic mucosa; 1 to 14 days of treatment, *p<0.05 at 7 days): smaller increase, which was only significant at 7 days of treatment | HE4 expression in SPEM cells at the bases of fundic glands (immunostaining) (fundic mucosa; DMP-777 treated gastrin-deficient mice): prominent up-regulation | TACC3 expression in cells at the bases of gastric glands (fundic mucosa; after only one day of DMP-777 treatment): TACC3 expression was evident | HE4 immunoreactivity in SPEM (fundic mucosa; after only one day of treatment): markedly increased | quantification of MCM3 staining (FIG. 6F) (fundic mucosa; days 3-14 of treatment, **p<0.01, ***p<0.001): significant increase | TFF2 and intrinsic factor staining in cells at the bases of fundic glands (fundic mucosa; gastrin deficient mice treated for 3 days with DMP-777): SPEM cells expressing two separate populations of TFF2 and intrinsic factor staining granules were present | Ki67 positive cell numbers (fundic mucosa; gastrin-deficient mice after DMP-777 treatment): only a small increase | number of Mist1 immunoreactive cells at the bases of glands (fundic mucosa; gastrin-deficient mice treated with DMP-777 for three days): decreased | number of MCM3 positive cells (fundic mucosa; gastrin-deficient mice, after 1 day of DMP-777, remained elevated through 14 days): increased | TACC3 expression in SPEM cells at the bases of fundic glands (fundic mucosa; treatment with DMP-777 for 3 days): strongly up-regulated | granule morphology of SPEM cells at the bases of fundic glands (electron microscopy) [1]: heterogeneous set of granule morphologies | morphological evidence of apoptosis (electron microscopy) [1]: no morphological evidence of apoptosis | inflammatory infiltrate (parietal cells; DMP-777 treated animals): absence of significant inflammatory infiltrate | induction of SPEM in gastrin-deficient (knockout) mice (parietal cells; gastrin knockout mice): rapid induction of metaplasia after only one day of DMP-777 treatment; also recorded: develop SPEM after only one dose of DMP-777; also recorded: develop SPEM after only a single dose of DMP-777 | surface cell (foveolar) hyperplasia in response to DMP-777 (parietal cells; gastrin knockout mice): do not develop surface cell hyperplasia | cells expressing both intrinsic factor and TFF2 (dual expressing cells) (parietal cells; gastrin-deficient mice, after only one day of treatment): rapid increase in dual expressing cells | loss of parietal cells (parietal cells; mice or rats, high doses of oral DMP-777 (>200 mg/kg/d), three days of administration): rapid loss of parietal cells | time of oxyntic atrophy until SPEM develops in the fundus (parietal cells; mice or rats, oral DMP-777 >200 mg/kg/d): 7 to 10 days | dysplastic lesions (parietal cells; mice or rats, prolonged administration of drug for up to a year): no dysplastic lesions are ever observed | time to loss of acid-secreting parietal cells (parietal cells; rodents): within one to three days | days of treatment required for SPEM in wild type C57BL/6 mice (parietal cells; wild type C57BL/6 mice): 7 to 10 days and 10 to 14 days
